Experimental data as given in patent publication US20210045385A1, “PYRIDAZINONE-SUBSTITUTED KETOXIMES AS HERBICIDES” (FMC Corporation, priority 2018, published 2021).

Experiments:
Format in all cases: in vivo
kochia (Kochia scoparia) [1] = assay: Test A preemergence, visual plant response rating; conditions: for Kochia plant response rating: 125 g ai/ha, preemergence, 0 to 100 scale, 0 no effect, 100 complete control; for Kochia plant response rating (0 to 100 scale): 500 g ai/ha Preemergence, approx. 10 days
Method in brief: (§1)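 Ratings use a 0–100 visual scale (100 = complete control) against untreated controls, scored about 10 days after greenhouse treatment. Test chemicals were formulated in surfactant-containing non-phytotoxic solvent and applied either as soil spray after planting (preemergence) or onto one- to two-leaf, 2–10 cm plants (postemergence).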

[2] = tested on: ragweed (common ragweed, Ambrosia elatior); assay: Test A preemergence, visual plant response rating; conditions: for Ragweed plant response rating: 125 g ai/ha, preemergence, 0 to 100 scale, 0 no effect, 100 complete control; for Ragweed plant response rating (0 to 100 scale): 500 g ai/ha Preemergence, approx. 10 days
Method in brief: as §1

[3] = tested on: foxtail, giant (giant foxtail, Setaria faberii); assay: Test A preemergence, visual plant response rating; conditions: for Foxtail, Giant plant response rating: 125 g ai/ha, preemergence, 0 to 100 scale, 0 no effect, 100 complete control; for Foxtail, Giant plant response rating (0 to 100 scale): 500 g ai/ha Preemergence, approx. 10 days
Method in brief: as §1

[4] = tested on: barnyardgrass (Echinochloa crus-galli); assay: Test A preemergence, visual plant response rating; conditions: for Barnyardgrass plant response rating: 125 g ai/ha, preemergence, 0 to 100 scale, 0 no effect, 100 complete control; for Barnyardgrass plant response rating (0 to 100 scale): 500 g ai/ha Preemergence, approx. 10 days
Method in brief: as §1

[5] = tested on: pigweed (Amaranthus retroflexus); assay: Test A preemergence, visual plant response rating; conditions: for Pigweed plant response rating: 125 g ai/ha, preemergence, 0 to 100 scale, 0 no effect, 100 complete control; for Pigweed plant response rating (0 to 100 scale): 500 g ai/ha Preemergence, approx. 10 days
Method in brief: as §1

[6] = tested on: Italian ryegrass (Lolium multiflorum); assay: Test A preemergence, visual plant response rating; conditions: for Ryegrass, Italian plant response rating: 125 g ai/ha, preemergence, 0 to 100 scale, 0 no effect, 100 complete control; for Ryegrass, Italian plant response rating (0 to 100 scale): 500 g ai/ha Preemergence, approx. 10 days
Method in brief: as §1

kochia (Kochia scoparia) [7] = assay: Test A postemergence, visual plant response rating; conditions: for Kochia plant response rating (0 to 100 scale): 500 g ai/ha, postemergence, 0 is no effect, 100 is complete control; for Kochia plant response rating: Postemergence, 125 g ai/ha, 0 to 100 scale (0 no effect, 100 complete control)
Method in brief: as §1

[8] = tested on: galium (catchweed bedstraw, Galium aparine); assay: Test A postemergence, visual plant response rating; conditions: for Galium plant response rating (0 to 100 scale): 500 g ai/ha, postemergence, 0 is no effect, 100 is complete control; for Galium plant response rating: Postemergence, 125 g ai/ha, 0 to 100 scale (0 no effect, 100 complete control)
Method in brief: as §1

[9] = tested on: wheat (Triticum aestivum); assay: Test A postemergence, visual plant response rating; conditions: for Wheat plant response rating (0 to 100 scale): 500 g ai/ha, postemergence, 0 is no effect, 100 is complete control; for Wheat plant response rating: Postemergence, 125 g ai/ha, 0 to 100 scale (0 no effect, 100 complete control)
Method in brief: as §1

[10] = tested on: ragweed (common ragweed, Ambrosia elatior); assay: Test A postemergence, visual plant response rating; conditions: for Ragweed plant response rating (0 to 100 scale): 500 g ai/ha, postemergence, 0 is no effect, 100 is complete control; for Ragweed plant response rating: Postemergence, 125 g ai/ha, 0 to 100 scale (0 no effect, 100 complete control)
Method in brief: as §1

corn (Zea mays) = assay: Test A postemergence, visual plant response rating; conditions: for Corn plant response rating (0 to 100 scale): 500 g ai/ha, postemergence, 0 is no effect, 100 is complete control; for Corn plant response rating: Postemergence, 125 g ai/ha, 0 to 100 scale (0 no effect, 100 complete control)
Method in brief: as §1

[11] = tested on: blackgrass (Alopecurus myosuroides); assay: Test A postemergence, visual plant response rating; conditions: for Blackgrass plant response rating (0 to 100 scale): 500 g ai/ha, postemergence, 0 is no effect, 100 is complete control; for Blackgrass plant response rating: Postemergence, 125 g ai/ha, 0 to 100 scale (0 no effect, 100 complete control)
Method in brief: as §1

[12] = tested on: foxtail, giant (giant foxtail, Setaria faberii); assay: Test A postemergence, visual plant response rating; conditions: for Foxtail, Giant plant response rating (0 to 100 scale): 500 g ai/ha, postemergence, 0 is no effect, 100 is complete control; for Foxtail, Giant plant response rating: Postemergence, 125 g ai/ha, 0 to 100 scale (0 no effect, 100 complete control)
Method in brief: as §1

[13] = tested on: barnyardgrass (Echinochloa crus-galli); assay: Test A postemergence, visual plant response rating; conditions: for Barnyardgrass plant response rating (0 to 100 scale): 500 g ai/ha, postemergence, 0 is no effect, 100 is complete control; for Barnyardgrass plant response rating: Postemergence, 125 g ai/ha, 0 to 100 scale (0 no effect, 100 complete control)
Method in brief: as §1

[14] = tested on: pigweed (Amaranthus retroflexus); assay: Test A postemergence, visual plant response rating; conditions: for Pigweed plant response rating (0 to 100 scale): 500 g ai/ha, postemergence, 0 is no effect, 100 is complete control; for Pigweed plant response rating: Postemergence, 125 g ai/ha, 0 to 100 scale (0 no effect, 100 complete control)
Method in brief: as §1

[15] = tested on: Italian ryegrass (Lolium multiflorum); assay: Test A postemergence, visual plant response rating; conditions: for Ryegrass, Italian plant response rating (0 to 100 scale): 500 g ai/ha, postemergence, 0 is no effect, 100 is complete control; for Ryegrass, Italian plant response rating: Postemergence, 125 g ai/ha, 0 to 100 scale (0 no effect, 100 complete control)
Method in brief: as §1

rice (Oryza sativa) = assay: Test B flooded paddy test, visual plant response rating; conditions: 250 g ai/ha, Flood, applied to paddy water, 2-leaf stage, evaluated after 13 to 15 days
Method in brief: (§2)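 Compounds added straight into paddy water of pots flooded to 3 cm, with 2-leaf-stage plants of the four species; water level held throughout.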

[16] = tested on: ducksalad (Heteranhera limosa); assay: as above; conditions: 250 g ai/ha, Flood, applied to paddy water, 2-leaf stage, evaluated after 13 to 15 days
Method in brief: as §2

[17] = tested on: barnyardgrass (Echinochloa crus-galli); assay: as above; conditions: 250 g ai/ha, Flood, applied to paddy water, 2-leaf stage, evaluated after 13 to 15 days
Method in brief: as §2

[18] = tested on: sedge, umbrella (small-flower umbrella sedge, Cyperus difformis); assay: as above; conditions: 250 g ai/ha, Flood, applied to paddy water, 2-leaf stage, evaluated after 13 to 15 days
Method in brief: as §2

Row | SMILES | Kochia plant response rating (kochia (Kochia scoparia) [1]) | Kochia plant response rating (0 to 100 scale) (kochia (Kochia scoparia) [1]) | Ragweed plant response rating [2] | Ragweed plant response rating (0 to 100 scale) [2] | Foxtail, Giant plant response rating [3] | Foxtail, Giant plant response rating (0 to 100 scale) [3] | Barnyardgrass plant response rating [4] | Barnyardgrass plant response rating (0 to 100 scale) [4] | Pigweed plant response rating [5] | Pigweed plant response rating (0 to 100 scale) [5] | Ryegrass, Italian plant response rating [6] | Ryegrass, Italian plant response rating (0 to 100 scale) [6] | Kochia plant response rating (0 to 100 scale) (kochia (Kochia scoparia) [7]) | Kochia plant response rating (kochia (Kochia scoparia) [7]) | Galium plant response rating (0 to 100 scale) [8] | Galium plant response rating [8] | Wheat plant response rating (0 to 100 scale) [9] | Wheat plant response rating [9] | Ragweed plant response rating (0 to 100 scale) [10] | Ragweed plant response rating [10] | also measured
1 | CCC(=O)Oc1c(C)nn(C)c(=O)c1C(=NOC)c1cccc2ccccc12 [Compound 49] | 50 | 70 | 100 | 100 | 50 | 80 | 30 | 90 | 90 | 100 | 40 | 70 | 90 | 70 | 90 | 80 | 10 | 0 | 90 | 80 | Corn plant response rating (0 to 100 scale) (corn (Zea mays)): 50; Corn plant response rating (corn (Zea mays)): 0; Blackgrass plant response rating (0 to 100 scale) [11]: 90; Blackgrass plant response rating [11]: 70; Foxtail, Giant plant response rating (0 to 100 scale) [12]: 80; Foxtail, Giant plant response rating [12]: 40; Barnyardgrass plant response rating (0 to 100 scale) [13]: 50; Barnyardgrass plant response rating [13]: 20; Pigweed plant response rating (0 to 100 scale) [14]: 90; Pigweed plant response rating [14]: 80; Ryegrass, Italian plant response rating (0 to 100 scale) [15]: 80; Ryegrass, Italian plant response rating [15]: 40; Plant response rating, Rice (0 to 100 scale, 0 is no effect, 100 is complete control) (rice (Oryza sativa)): 0; Plant response rating, Ducksalad (0 to 100 scale, 0 is no effect, 100 is complete control) [16]: 0; Plant response rating, Barnyardgrass (0 to 100 scale, 0 is no effect, 100 is complete control) [17]: 0; Plant response rating, Sedge, Umbrella (0 to 100 scale, 0 is no effect, 100 is complete control) [18]: 0
2 | CO/N=C(\c1cccc(C)c1F)c1c(O)c(C)nn(C)c1=O [Compound 50] | 10 | 70 | 50 | 90 | 0 | 40 | 10 | 60 | 30 | 90 | 30 | 30 | 80 | 60 | 70 | 70 | 0 | 0 | 80 | 70 | Corn plant response rating (0 to 100 scale) (corn (Zea mays)): 0; Corn plant response rating (corn (Zea mays)): 0; Blackgrass plant response rating (0 to 100 scale) [11]: 30; Blackgrass plant response rating [11]: 0; Foxtail, Giant plant response rating (0 to 100 scale) [12]: 70; Foxtail, Giant plant response rating [12]: 20; Barnyardgrass plant response rating (0 to 100 scale) [13]: 40; Barnyardgrass plant response rating [13]: 10; Pigweed plant response rating (0 to 100 scale) [14]: 90; Pigweed plant response rating [14]: 90; Ryegrass, Italian plant response rating (0 to 100 scale) [15]: 80; Ryegrass, Italian plant response rating [15]: 20; Plant response rating, Rice (0 to 100 scale, 0 is no effect, 100 is complete control) (rice (Oryza sativa)): 0; Plant response rating, Ducksalad (0 to 100 scale, 0 is no effect, 100 is complete control) [16]: 0; Plant response rating, Barnyardgrass (0 to 100 scale, 0 is no effect, 100 is complete control) [17]: 0; Plant response rating, Sedge, Umbrella (0 to 100 scale, 0 is no effect, 100 is complete control) [18]: 0
